Measured values reported in a compilation of properties of binary mixtures (doi:10.1016/j.molliq.2016.02.091).

Assay: xn = mol fraction of the nth substance listed
Conditions: 101 kPa

CC[n+]1ccn(C)c1.COS(=O)(=O)[O-] + CC(=O)O
speed of sound [m/s]
Conditions	x2 = 0	x2 = 0.1669	x2 = 0.3003	x2 = 0.5004	x2 = 0.6432	x2 = 0.7503	x2 = 0.8336	x2 = 0.9001	x2 = 0.9546	x2 = 0.9783
298.15 K	1758	1713	1665	1593	1501	1419	–	1274	1202	–
303.15 K	1745	1702	1650	1580	–	1403	–	1258	–	1151
308.15 K	1734	–	1641	1568	1473	1391	1318	1246	1172	1136
313.15 K	1723	1681	1624	–	1456	1371	1298	1225	1152	1116

CC[n+]1ccn(C)c1.COS(=O)(=O)[O-] + CCC(=O)O
speed of sound [m/s]
Conditions	x2 = 0	x2 = 0.1332	x2 = 0.2478	x2 = 0.4345	x2 = 0.5804	x2 = 0.6975	x2 = 0.7935	x2 = 0.8737	x2 = 0.9417	x2 = 0.9719
298.15 K	1758	1715	1669	1590	1509	1430	1356	1285	1215	–
303.15 K	1745	1701	1656	1576	1493	1413	1339	1267	1197	1162
308.15 K	1734	1689	1642	1563	1478	1396	1321	1249	1178	1143
313.15 K	1723	1678	1630	1549	1462	1380	1304	1231	1160	–

CC(=O)O + CC[n+]1ccn(C)c1.COS(=O)(=O)[O-]
x1 = 1
Conditions	speed of sound [m/s]
298.15 K	1133
303.15 K	1117
308.15 K	1102
313.15 K	1082

CCC(=O)O + CC[n+]1ccn(C)c1.COS(=O)(=O)[O-]
x1 = 1
Conditions	speed of sound [m/s]
303.15 K	1129
308.15 K	1110
